How the values were obtained:
[1] = target: Sodium-dependent noradrenaline transporter (Homo sapiens, UniProt P23975); assay: DRUGMATRIX: Norepinephrine Transporter radioligand binding (ligand: [125I] RTI-55); format: cell membranes, MDCK, Membrane; conditions: Not Active = under 50% inhibition at 10 µM
[2] = DRUGMATRIX: Glutamate, AMPA radioligand binding (ligand: [3H] AMPA); format: cell membranes, Rattus norvegicus, Wistar, Cerebral cortex, Membrane; conditions: Not Active = under 50% inhibition at 10 µM
[3] = target: Mitogen-activated protein kinase 3 (Homo sapiens, UniProt P27361); assay: DRUGMATRIX: Protein Serine/Threonine Kinase, ERK1 enzyme inhibition (substrate: Myelin Basic Protein); design: species or system Escherichia coli; conditions: Not Active = under 50% inhibition at 10 µM
Mitogen-activated protein kinase 3, sequence (P27361 whole entry): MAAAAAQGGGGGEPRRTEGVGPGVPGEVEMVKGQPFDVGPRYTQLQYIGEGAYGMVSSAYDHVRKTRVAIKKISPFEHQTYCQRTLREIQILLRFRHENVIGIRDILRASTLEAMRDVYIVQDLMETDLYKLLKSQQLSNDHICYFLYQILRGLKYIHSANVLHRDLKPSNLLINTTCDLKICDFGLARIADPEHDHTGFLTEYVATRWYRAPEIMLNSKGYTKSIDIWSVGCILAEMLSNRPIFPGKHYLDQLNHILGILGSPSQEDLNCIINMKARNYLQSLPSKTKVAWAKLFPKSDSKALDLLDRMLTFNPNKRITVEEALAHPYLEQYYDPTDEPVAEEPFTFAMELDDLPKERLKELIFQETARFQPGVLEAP

[4] = target: 5-hydroxytryptamine receptor 1B (Rattus norvegicus, UniProt P28564); format: cell membranes, Wistar, Cerebral cortex, Membrane; further: in other assays of this panel Not Active means under 50% inhibition at 10 µM
5-hydroxytryptamine receptor 1B, sequence (P28564 whole entry): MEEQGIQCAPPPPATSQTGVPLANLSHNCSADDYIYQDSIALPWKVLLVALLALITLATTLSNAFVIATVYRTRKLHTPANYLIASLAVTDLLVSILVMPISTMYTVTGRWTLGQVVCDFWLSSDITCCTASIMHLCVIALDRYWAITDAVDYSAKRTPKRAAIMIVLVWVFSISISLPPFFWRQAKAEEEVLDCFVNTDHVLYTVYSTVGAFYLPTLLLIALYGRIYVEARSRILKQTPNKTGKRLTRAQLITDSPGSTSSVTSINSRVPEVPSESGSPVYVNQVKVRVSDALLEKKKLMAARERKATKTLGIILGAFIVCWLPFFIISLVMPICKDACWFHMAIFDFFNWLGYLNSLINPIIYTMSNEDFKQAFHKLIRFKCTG

B2 bradykinin receptor = target: T1, B2 bradykinin receptor (Homo sapiens, UniProt P30411); format: cell membranes, Membrane; conditions: chem-1; further: in other assays of this panel Not Active means under 50% inhibition at 10 µM
T1 sequence (P30411 whole entry): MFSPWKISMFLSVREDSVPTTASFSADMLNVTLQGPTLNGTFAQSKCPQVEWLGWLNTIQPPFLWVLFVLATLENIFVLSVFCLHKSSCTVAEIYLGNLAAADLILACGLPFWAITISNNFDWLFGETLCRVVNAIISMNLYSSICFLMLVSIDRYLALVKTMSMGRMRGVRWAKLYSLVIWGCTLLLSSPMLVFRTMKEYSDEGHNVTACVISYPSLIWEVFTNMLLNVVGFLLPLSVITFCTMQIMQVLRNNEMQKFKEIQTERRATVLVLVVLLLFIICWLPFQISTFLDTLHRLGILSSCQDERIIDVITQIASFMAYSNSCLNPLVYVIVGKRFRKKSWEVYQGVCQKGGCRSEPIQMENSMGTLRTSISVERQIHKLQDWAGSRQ

[5] = target: cGMP-specific 3',5'-cyclic phosphodiesterase (Homo sapiens, UniProt O76074); assay: DRUGMATRIX: Phosphodiesterase PDE5 enzyme inhibition (substrate: [3H]cGMP + cGMP); format: tissue-based; conditions: platelet; Not Active = under 50% inhibition at 10 µM
Cytochrome P450 2E1 = Cytochrome P450 2E1 (Homo sapiens, UniProt P05181); conditions: bti-tn-5b1-4; further: in other assays of this panel Not Active means under 50% inhibition at 10 µM
Cytochrome P450 2E1, sequence (P05181 whole entry): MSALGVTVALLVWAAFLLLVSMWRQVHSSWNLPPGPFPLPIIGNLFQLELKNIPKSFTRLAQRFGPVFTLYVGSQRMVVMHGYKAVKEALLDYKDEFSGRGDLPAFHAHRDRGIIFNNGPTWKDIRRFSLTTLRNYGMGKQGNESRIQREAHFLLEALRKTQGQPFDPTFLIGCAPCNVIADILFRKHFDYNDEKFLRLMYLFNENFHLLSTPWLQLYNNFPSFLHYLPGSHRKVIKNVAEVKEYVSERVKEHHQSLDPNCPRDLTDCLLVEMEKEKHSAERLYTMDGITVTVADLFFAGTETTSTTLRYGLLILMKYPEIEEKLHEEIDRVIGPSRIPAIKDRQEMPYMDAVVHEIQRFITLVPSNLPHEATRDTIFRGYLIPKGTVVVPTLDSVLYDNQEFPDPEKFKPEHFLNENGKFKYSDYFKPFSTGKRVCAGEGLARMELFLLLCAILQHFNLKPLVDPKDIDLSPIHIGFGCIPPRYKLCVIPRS

Sodium-dependent noradrenaline transporter, sequence (P23975 whole entry): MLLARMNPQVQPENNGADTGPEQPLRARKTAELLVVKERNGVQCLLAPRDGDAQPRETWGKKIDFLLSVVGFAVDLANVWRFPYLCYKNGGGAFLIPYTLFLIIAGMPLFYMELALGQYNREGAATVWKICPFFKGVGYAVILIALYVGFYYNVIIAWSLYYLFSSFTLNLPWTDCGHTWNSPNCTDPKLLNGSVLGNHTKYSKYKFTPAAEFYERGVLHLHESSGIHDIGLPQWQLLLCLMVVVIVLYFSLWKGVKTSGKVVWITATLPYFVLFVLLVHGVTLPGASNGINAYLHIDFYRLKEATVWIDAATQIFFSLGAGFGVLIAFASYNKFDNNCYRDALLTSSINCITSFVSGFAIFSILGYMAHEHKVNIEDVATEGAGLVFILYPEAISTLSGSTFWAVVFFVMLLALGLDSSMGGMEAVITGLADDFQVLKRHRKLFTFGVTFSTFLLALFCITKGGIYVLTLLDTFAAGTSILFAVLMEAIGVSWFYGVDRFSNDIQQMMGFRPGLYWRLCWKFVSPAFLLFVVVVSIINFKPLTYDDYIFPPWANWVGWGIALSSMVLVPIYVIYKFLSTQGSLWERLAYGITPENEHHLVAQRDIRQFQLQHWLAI

Molecule | IC50 ([1]; mdck) | IC50 [2] | Ki [2] | IC50 [3] | IC50 [4] | IC50 (B2 bradykinin receptor) | IC50 [5] | IC50 (Cytochrome P450 2E1) | Ki (Cytochrome P450 2E1) | IC50 ([1]; read-out: IC50) [nM] | Ki ([1]; read-out: Ki) [nM] | IC50 ([4]; read-out: IC50) [nM] | Ki ([4]; read-out: Ki) [nM] | IC50 ([3]; read-out: IC50) [nM] | Ki ([1]; mdck) | Ki [3] | Ki [4] | Ki (B2 bradykinin receptor) | Ki [5]
COc1nc(C)nc(Cl)c1NC1=NCCN1 [MOXONIDINE] | Not Active | Not Active | Not Active | Not Active | Not Active | Not Active | Not Active | Not Active | Not Active |  |  |  |  |  |  |  |  |  | 
N[C@@H](Cc1ccc(O)c(O)c1)C(=O)O [LEVODOPA] | Not Active | Not Active | Not Active | Not Active | Not Active | Not Active | Not Active | Not Active | Not Active |  |  |  |  |  |  |  |  |  | 
OCCN(CCO)c1nc(N2CCCCC2)c2nc(N(CCO)CCO)nc(N3CCCCC3)c2n1 [DIPYRIDAMOLE] | Not Active | Not Active | Not Active | Not Active | Not Active | Not Active |  | Not Active | Not Active |  |  |  |  |  |  |  |  |  | 
Cn1ccnc1S [METHIMAZOLE] | Not Active | Not Active | Not Active | Not Active | Not Active | Not Active | Not Active | Not Active | Not Active |  |  |  |  |  |  |  |  |  | 
CC(=O)[C@@]1(O)CC[C@H]2[C@@H]3C[C@H](C)C4=CC(=O)CC[C@]4(C)[C@H]3CC[C@@]21C | Not Active | Not Active | Not Active | Not Active | Not Active | Not Active | Not Active | Not Active | Not Active |  |  |  |  |  |  |  |  |  | 
C=CCC1(C(C)CCC)C(=O)NC(=O)NC1=O (stereo not drawn) [SECOBARBITAL] | Not Active | Not Active | Not Active | Not Active | Not Active | Not Active | Not Active | Not Active | Not Active |  |  |  |  |  |  |  |  |  | 
C[C@@H]1CN(c2c(F)c(N)c3c(=O)c(C(=O)O)cn(C4CC4)c3c2F)C[C@H](C)N1 [SPARFLOXACIN] | Not Active | Not Active | Not Active | Not Active | Not Active | Not Active | Not Active | Not Active | Not Active |  |  |  |  |  |  |  |  |  | 
O=c1ncn2nc(Sc3ccc(F)cc3F)ccc2c1-c1c(Cl)cccc1Cl [NEFLAMAPIMOD] |  | Not Active | Not Active | Not Active | Not Active | Not Active | Not Active | Not Active | Not Active | 20400 | 20200 |  |  |  |  |  |  |  | 
Nc1c2c(nc3ccccc13)CCCC2 [TACRINE] |  | Not Active | Not Active | Not Active | Not Active | Not Active | Not Active | Not Active | Not Active | 517 | 513 |  |  |  |  |  |  |  | 
CO[C@H]1/C=C/O[C@@]2(C)Oc3c(C)c(O)c4c(O)c(c(/C=N/N5CCN(C)CC5)c(O)c4c3C2=O)NC(=O)/C(C)=C\C=C\[C@H](C)[C@H](O)[C@@H](C)[C@@H](O)[C@@H](C)[C@H](OC(C)=O)[C@@H]1C [RIFAMPIN] | Not Active | Not Active | Not Active | Not Active | Not Active | Not Active | Not Active | Not Active | Not Active |  |  |  |  |  |  |  |  |  | 
CCCCc1oc2ccccc2c1C(=O)c1cc(I)c(OCCN(CC)CC)c(I)c1 [AMIODARONE] |  |  |  | Not Active |  |  | Not Active | Not Active | Not Active |  |  | 86200 | 39200 |  |  |  |  |  | 
CCOC(=O)N1CCC(=C2c3ccc(Cl)cc3CCc3cccnc32)CC1 [LORATADINE] | Not Active | Not Active | Not Active | Not Active | Not Active | Not Active | Not Active | Not Active | Not Active |  |  |  |  |  |  |  |  |  | 
N[C@@H](Cc1ccc(N(CCCl)CCCl)cc1)C(=O)O | Not Active | Not Active | Not Active | Not Active | Not Active | Not Active | Not Active | Not Active | Not Active |  |  |  |  |  |  |  |  |  | 
Cc1noc(NS(=O)(=O)c2ccc(N)cc2)c1C [SULFISOXAZOLE] | Not Active | Not Active | Not Active | Not Active | Not Active | Not Active | Not Active | Not Active | Not Active |  |  |  |  |  |  |  |  |  | 
N[C@@H](Cc1cc(I)c(Oc2ccc(O)c(I)c2)c(I)c1)C(=O)O [LIOTHYRONINE] | Not Active |  |  | Not Active | Not Active | Not Active | Not Active | Not Active | Not Active |  |  |  |  |  |  |  |  |  | 
c1ccc([C@H]2CN3CCSC3=N2)cc1 [LEVAMISOLE] | Not Active | Not Active | Not Active | Not Active | Not Active | Not Active | Not Active | Not Active | Not Active |  |  |  |  |  |  |  |  |  | 
CC1(C)O[C@@H]2C[C@H]3[C@@H]4CCC5=CC(=O)C=C[C@]5(C)[C@@]4(F)[C@@H](O)C[C@]3(C)[C@]2(C(=O)CO)O1 [TRIAMCINOLONE ACETONIDE] | Not Active | Not Active | Not Active | Not Active | Not Active | Not Active | Not Active | Not Active | Not Active |  |  |  |  |  |  |  |  |  | 
N#CC(C#N)=Cc1ccc(O)c(O)c1 [TYRPHOSTIN 23] | Not Active | Not Active | Not Active | Not Active | Not Active | Not Active | Not Active | Not Active | Not Active |  |  |  |  |  |  |  |  |  | 
Nc1nc2nc[nH]c2c(=S)[nH]1 [THIOGUANINE] | Not Active | Not Active | Not Active |  | Not Active | Not Active | Not Active | Not Active | Not Active |  |  |  |  | 5520 |  |  |  |  | 
NS(=O)(=O)c1cc2c(cc1Cl)NC(C(Cl)Cl)NS2(=O)=O (stereo not drawn) [TRICHLORMETHIAZIDE] | Not Active | Not Active | Not Active | Not Active | Not Active | Not Active | Not Active | Not Active | Not Active |  |  |  |  |  |  |  |  |  | 
CC(C)N1CCN(c2ccc(OCC3COC(Cn4cncn4)(c4ccc(Cl)cc4Cl)O3)cc2)CC1 (stereo not drawn) [TERCONAZOLE] |  | Not Active | Not Active | Not Active |  | Not Active | Not Active | Not Active | Not Active |  |  | 89900 | 40900 |  |  |  |  |  | 
CN1CCN(CCCN2c3ccccc3Sc3ccc(Cl)cc32)CC1 [PROCHLORPERAZINE] |  |  |  | Not Active |  | Not Active | Not Active | Not Active | Not Active |  |  | 2650 | 1200 |  |  |  |  |  | 
CC(C)(C)NC(=O)[C@@H]1C[C@@H]2CCCC[C@@H]2CN1C[C@@H](O)[C@H](Cc1ccccc1)NC(=O)[C@H](CC(N)=O)NC(=O)c1ccc2ccccc2n1 | Not Active | Not Active | Not Active | Not Active | Not Active | Not Active | Not Active | Not Active | Not Active |  |  |  |  |  |  |  |  |  | 
SODIUM NITROPRUSSIDE | Not Active | Not Active | Not Active | Not Active | Not Active | Not Active | Not Active | Not Active | Not Active |  |  |  |  |  | Not Active | Not Active | Not Active | Not Active | Not Active
CC/C(=C(\c1ccccc1)c1ccc(OCCN(C)C)cc1)c1ccccc1 [TAMOXIFEN] |  |  |  | Not Active | Not Active |  | Not Active | Not Active | Not Active | 1470 | 1460 |  |  |  |  |  |  |  | 
Cc1oncc1C(=O)Nc1ccc(C(F)(F)F)cc1 [LEFLUNOMIDE] |  | Not Active | Not Active | Not Active | Not Active | Not Active | Not Active | Not Active | Not Active |  |  |  |  |  |  |  |  |  | 
Nc1nc2ccc(OC(F)(F)F)cc2s1 [RILUZOLE] |  | Not Active | Not Active | Not Active | Not Active | Not Active | Not Active |  |  | 1730 | 1720 |  |  |  |  |  |  |  | 
Cc1nc2n(c(=O)c1CCN1CCC(c3noc4cc(F)ccc34)CC1)CCCC2 [RISPERIDONE] | Not Active |  |  | Not Active | Not Active | Not Active | Not Active | Not Active | Not Active |  |  |  |  |  |  |  |  |  | 
CCCOc1ccccc1-c1nc2nn[nH]c2c(=O)[nH]1 [ZAPRINAST] | Not Active | Not Active | Not Active | Not Active | Not Active | Not Active |  | Not Active | Not Active |  |  |  |  |  |  |  |  |  | 

Reference: ChEMBL document CHEMBL1909046, “DrugMatrix in vitro pharmacology data”
